Broadly, the IC50 is the midpoint of a concentration-inhibition curve.

Where “and” joins values, the source holds several entries; their conditions need not be identical. Equal entries are not always repeated.

For one data set, the system named is HSV-1. The settings on record: read-out: IC50 against HSV-1; cited from earlier work.
The test system of data set [1] is PRV. Kind of data set: microbe, parasite or virus in culture. The following applies: for IC50: Suid alphaherpesvirus 1, HeLa, 24 h. In kind it is cell-based, pseudorabies virus.
The next data set relates to HCMV. The settings on record: read-out: IC50 against HCMV; cited from earlier work.
A short description of a further data set: in vitro. The settings on record: human.
A further data set deals with HSV-2. The following applies: read-out: IC50 against HSV-2; cited from earlier work.
A further data set concerns enterovirus 71. The settings on record: read-out: IC50 against enterovirus 71; cited from earlier work.
Data set [2] deals with PRV. Type of data set: cell-based, pseudorabies virus.

Take `Oc1cccc2c1[nH]c1c(C3=C[C@@]4(O)CC/C=C\CCCCN5CC[C@@H]3[C@]3(C[C@@H]6/C=C\CCCCN6[C@H]34)C5)nccc12` [8-hydroxymanzamine A]: the half-inhibitory concentration (IC50) in the data set on HSV-1 was 3.7 µM.
With `COc1cc(N2CCN(C)CC2)ccc1Nc1nccc(-c2cn(C)c3cnccc23)n1` [AZ191], the “reduction of production of infectious virus particles vs DMSO” value in the data set with PRV [1] turned out to be 1.1 Log. Also, the “cytotoxicity / cell viability at the concentration used” value (shortened to “cytotoxicity / cell viability”) in the data set on DF-1 cells is on record as “did not affect cell viability”.
For the molecule `Nc1nc2c(ncn2COCCO)c(=O)[nH]1` [Acyclovir], in the data set on PRV [1], the “reduction (positive control), primary screening” value worked out at 98% and the concentration for half-maximal inhibition (IC50) was found to be 2.81 ± 0.3 µM.
As to `COc1ccc2c(c1)[nH]c1c(C)nccc12` [Compound 2, harmine], the “inhibitory rate (reduction vs DMSO-treated cells), primary screening” value in the data set with PRV [1] is listed as > 90%. Besides, the “reduction of production of infectious virus particles vs DMSO” value with PRV [1] is reported as 2.3 Log. In addition, the concentration for half-maximal inhibition (IC50) in the data set on PRV [1] was 1.19 ± 0.09 µM; with HCMV, 0.71 ± 0.019 µM; in the data set with HSV-1, 4.56 µM; with HSV-2, 1.47 µM; with enterovirus 71, 10 ± 2.5 µM. In addition, the CC50 in “in vitro” was > 30 µM. In addition, the “cytotoxicity / cell viability” value with DF-1 cells was “without cytotoxicity”.
Consider `COc1ccc2c3ccnc(C)c3n(C)c2c1` [Compound 3, 9-methyl-harmine], for which, in the data set on PRV [1], the “inhibitory rate (reduction vs DMSO-treated cells), primary screening” value is > 90% and > 99%; the midpoint of inhibition, the IC50, lay at 0.52 ± 0.04 µM. The CC50 in the data set “in vitro” is > 30 µM.
Consider `CCn1c2ccccc2c2cc(Nc3ccnc(NCCCN4CCOCC4)n3)ccc21` [EHop-016], for which, in the data set on PRV [2], the “viral protein load (Western blot)” value is “reduced the viral protein load”. In addition, in the data set with DF-1 cells, the “cytotoxicity / cell viability” value is reported as “without cytotoxicity”.
In the case of `CCN(c1nc(N)c(C(=O)N=C(N)N)nc1Cl)C(C)C` [EIPA, 5-[N-ethyl-N-isopropyl] amiloride], in the data set on PRV [2], the “viral protein load (US9 relative to β-actin, densitometry)” value stood at 0.21 ± 0.01. Besides, the “cytotoxicity / cell viability” value with DF-1 cells is “without cytotoxicity”.
On to ML-141, for which the “viral protein load (Western blot)” value in the data set on PRV [2] was “reduced the viral protein load”. For the same molecule, in the data set with DF-1 cells, the “cytotoxicity / cell viability” value is “without cytotoxicity”.
Regarding Mazamine A, the IC50 in the data set with HSV-1 was 1 µM.
With manzamine A monohydrochloride, the IC50 in the data set with HSV-1 was 0.1 µM.
Turning to manzamine A monotartrate, the IC50 with HSV-1 was 0.1 µM.
